The subject of series [1] is SARS2. Type of series: cell-based, SARS-CoV-2. The following applies: for Percentage Inhibition Average 1 μM / Screening data (Relative infection to DMSO controls) Average 1 μM: SARS2, 1 μM; for Screening data (Relative infection to DMSO controls) Average 1 μM / Screening data (Relative infection to DMSO controls) Average 5 μM / Screening data (Relative infection to DMSO controls) Average 10 μM / Screening data (Relative infection to DMSO controls) Average 25 μM / Screening data (Relative infection to DMSO controls) Average 50 μM / Average (relative infection to DMSO over the 5 tested concentrations): 100=DMSO control; for Percentage Inhibition Average 5 μM / Screening data (Relative infection to DMSO controls) Average 5 μM: SARS2, 5 μM; for Percentage Inhibition Average 10 μM / Screening data (Relative infection to DMSO controls) Average 10 μM: SARS2, 10 μM; for Percentage Inhibition Average 25 μM / Screening data (Relative infection to DMSO controls) Average 25 μM: SARS2, 25 μM; for Percentage Inhibition Average 50 μM / Screening data (Relative infection to DMSO controls) Average 50 μM: SARS2, 50 μM; for Average (relative infection to DMSO over the 5 tested concentrations): SARS2, average over 1 to 50 uM; for Percentage Infection Relative to Appropriate DMSO Control with Avg Background Subtraction: single well.

Series [2] concerns cells (nuclei count). The conditions noted are these: for Relative cell count to DMSO controls, Average 1 μM / Relative cell count to DMSO controls, Average 5 μM / Relative cell count to DMSO controls, Average 10 μM / Relative cell count to DMSO controls, Average 25 μM / Relative cell count to DMSO controls, Average 50 μM: toxicity data, 100=DMSO control; for Relative cell count to DMSO controls, Average (for correlation analysis): average value over the 5 tested concentrations (1 to 50 uM).

“And” between values parts separate entries of the source, which are not always exact repeats. Equal values may be shown once. Read-outs that look alike come from different tables or passages of the source.

As to `CC1=C(C(=O)NCC2CCCCC2)C(c2cc(C)c(Br)s2)NC(=O)N1` (centres unmarked) [SILCS68], in series [1], the “Percentage Inhibition Average 1 μM” value came out at 32.72%, the “Screening data (Relative infection to DMSO controls) Average 1 μM” value amounted to 67.28, the “Percentage Inhibition Average 5 μM” value came to 28.63% and the “Screening data (Relative infection to DMSO controls) Average 5 μM” value was 71.37. Moreover, in series [1], the “Percentage Inhibition Average 10 μM” value came to 16.60%, the “Screening data (Relative infection to DMSO controls) Average 10 μM” value turned out to be 83.40, the “Percentage Inhibition Average 25 μM” value is reported as −10.69% and the “Screening data (Relative infection to DMSO controls) Average 25 μM” value came to 110.69. In series [1], the “Percentage Inhibition Average 50 μM” value was determined as 20.80%, the “Screening data (Relative infection to DMSO controls) Average 50 μM” value is reported as 79.20 and the “Average (relative infection to DMSO over the 5 tested concentrations)” value stood at 82.39. In series [2], the “Relative cell count to DMSO controls, Average 1 μM” value (shortened to “Relative cell count … Average 1 μM”) came out at 117.26; the “Relative cell count to DMSO controls, Average 5 μM” value (from here on “Relative cell count … Average 5 μM”) amounted to 114.63; the “Relative cell count to DMSO controls, Average 10 μM” value (“Relative cell count … Average 10 μM” for short) was determined as 110.48; the “Relative cell count to DMSO controls, Average 25 μM” value (from here on “Relative cell count … Average 25 μM”) amounted to 100.14. Further, in series [2], the “Relative cell count to DMSO controls, Average 50 μM” value (from here on “Relative cell count … Average 50 μM”) is listed as 91.82 and the “Relative cell count to DMSO controls, Average (for correlation analysis)” value (from here on “Relative cell count … (for correlation analysis)”) is listed as 106.87.
For the molecule `CCN(CC)CCN(Cc1ccccc1)Cc1ccc(C)o1` [SILCS23], the “Infection Data, Average, Mean” value in series [1] (Average of Exp 1-3, n 9, 1 uM) is 83.26%; in series [1] (Average of Exp 1-3, n 9, 5 uM), 72.94%; in series [1] (Average of Exp 1-3, n 9, 10 uM), 71.95%; in series [1] (Average of Exp 1-3, n 9, 25 uM), 42.51%; in series [1] (Average of Exp 1-3, n 9, 50 uM) it was 25.76%. Besides, the “Percentage Infection Relative to Appropriate DMSO Control with Avg Background Subtraction” value in series [1] (Exp 1 (SMW475), 1 uM) is 84.61% and 99.83% and 96.53%; in series [1] (Exp 1 (SMW475), 5 uM), 76.20% and 84.17% and 85.48%; in series [1] (Exp 1 (SMW475), 10 uM) it was 57.63% and 66.75% and 71.82%; in series [1] (Exp 1 (SMW475), 25 uM), 23.73% and 16.03% and 21.54%; in series [1] (Exp 1 (SMW475), 50 uM), 11.05% and 12.93% and 12.05%; in series [1] (Exp 2 (SMW477), 1 uM), 76.88% and 82.87% and 95.55%. Moreover, the “Percentage Infection Relative to Appropriate DMSO Control with Avg Background Subtraction” value was 77.18% and 66.56% and 59.07% in series [1] (Exp 2 (SMW477), 5 uM); 81.53% and 45.87% and 61.92% in series [1] (Exp 2 (SMW477), 10 uM); 42.76% and 36.42% and 27.04% in series [1] (Exp 2 (SMW477), 25 uM); 22.07% and 19.29% and 19.84% in series [1] (Exp 2 (SMW477), 50 uM); 74.83% and 73.82% and 64.40% in series [1] (Exp 3 (SMW478), 1 uM); 80.66% and 70.90% and 56.23% in series [1] (Exp 3 (SMW478), 5 uM). Moreover, the “Percentage Infection Relative to Appropriate DMSO Control with Avg Background Subtraction” value in series [1] (Exp 3 (SMW478), 10 uM) was 84.08% and 95.62% and 82.31%; in series [1] (Exp 3 (SMW478), 25 uM), 59.17% and 74.77% and 81.13%; in series [1] (Exp 3 (SMW478), 50 uM), 42.28% and 47.99% and 44.36%. The “Percentage Inhibition Average 1 μM” value in series [1] is 16.74%. For the same molecule, in series [1], the “Screening data (Relative infection to DMSO controls) Average 1 μM” value is given as 83.26. Besides, in series [1], the “Percentage Inhibition Average 5 μM” value stood at 27.06%. Also, the “Screening data (Relative infection to DMSO controls) Average 5 μM” value in series [1] was determined as 72.94. For the same molecule, in series [1], the “Percentage Inhibition Average 10 μM” value amounted to 28.05%. The “Screening data (Relative infection to DMSO controls) Average 10 μM” value in series [1] was 71.95. Also, in series [1], the “Percentage Inhibition Average 25 μM” value was found to be 57.49%. For the same molecule, in series [1], the “Screening data (Relative infection to DMSO controls) Average 25 μM” value worked out at 42.51. In series [1], the “Percentage Inhibition Average 50 μM” value turned out to be 74.24%. The “Screening data (Relative infection to DMSO controls) Average 50 μM” value in series [1] was 25.76. Further, the “Average (relative infection to DMSO over the 5 tested concentrations)” value in series [1] is on record as 59.28. In addition, in series [2], the “Relative cell count … Average 1 μM” value came to 123.69. Further, the “Relative cell count … Average 5 μM” value in series [2] is 129.2. In addition, the “Relative cell count … Average 10 μM” value in series [2] came out at 125.61. Also, the “Relative cell count … Average 25 μM” value in series [2] turned out to be 112.58. Besides, in series [2], the “Relative cell count … Average 50 μM” value amounted to 92.88. Also, the “Toxicity Data, Average, Mean” value came out at 123.69% in series [2] (Average of Exp 1-3, n 9, 1 uM); 129.20% in series [2] (Average of Exp 1-3, n 9, 5 uM); 125.61% in series [2] (Average of Exp 1-3, n 9, 10 uM); 112.58% in series [2] (Average of Exp 1-3, n 9, 25 uM); 92.88% in series [2] (Average of Exp 1-3, n 9, 50 uM). In addition, the “Relative cell count … (for correlation analysis)” value in series [2] was 116.79.
For the molecule `CCCCCCCCNC(=O)C1=C(C)NC(=O)NC1c1ccc(OC)c(OC)c1` (centres unmarked) [SILCS65], in series [1], the “Percentage Inhibition Average 1 μM” value is 12.85%, the “Screening data (Relative infection to DMSO controls) Average 1 μM” value stood at 87.15, the “Percentage Inhibition Average 5 μM” value is 42.13% and the “Screening data (Relative infection to DMSO controls) Average 5 μM” value turned out to be 57.87. For the same molecule, in series [1], the “Percentage Inhibition Average 10 μM” value is −8.68%, the “Screening data (Relative infection to DMSO controls) Average 10 μM” value was 108.68, the “Percentage Inhibition Average 25 μM” value was −33.09% and the “Screening data (Relative infection to DMSO controls) Average 25 μM” value was found to be 133.09. Also, in series [1], the “Percentage Inhibition Average 50 μM” value is −46.13%, the “Screening data (Relative infection to DMSO controls) Average 50 μM” value is 146.13 and the “Average (relative infection to DMSO over the 5 tested concentrations)” value was 106.58. For the same molecule, in series [2], the “Relative cell count … Average 1 μM” value is 104.64; the “Relative cell count … Average 5 μM” value is 115.73; the “Relative cell count … Average 10 μM” value amounted to 98.27; the “Relative cell count … Average 25 μM” value is given as 89.35. Moreover, in series [2], the “Relative cell count … Average 50 μM” value is 75.91 and the “Relative cell count … (for correlation analysis)” value was 96.78.
In the case of `CN(C)CCN(Cc1ccccc1)Cc1cc(C#CCO)cs1` [SILCS5], in series [1], the “Percentage Infection Relative to DMSO Control, Average, Mean” value is 75.63% and 81.28% and 98.58% and 104.84% and 111.97%; the “Percentage Inhibition Average 1 μM” value is −11.97%; the “Screening data (Relative infection to DMSO controls) Average 1 μM” value is given as 111.97; the “Percentage Inhibition Average 5 μM” value is recorded as −4.84%. Also, in series [1], the “Screening data (Relative infection to DMSO controls) Average 5 μM” value worked out at 104.84, the “Percentage Inhibition Average 10 μM” value was 1.42%, the “Screening data (Relative infection to DMSO controls) Average 10 μM” value is listed as 98.58 and the “Percentage Inhibition Average 25 μM” value amounted to 18.72%. For the same molecule, in series [1], the “Screening data (Relative infection to DMSO controls) Average 25 μM” value is given as 81.28, the “Percentage Inhibition Average 50 μM” value is given as 24.37%, the “Screening data (Relative infection to DMSO controls) Average 50 μM” value is 75.63 and the “Average (relative infection to DMSO over the 5 tested concentrations)” value turned out to be 94.46. In addition, in series [2], the “Relative cell count … Average 1 μM” value was 113.75; the “Relative cell count … Average 5 μM” value is recorded as 108.79; the “Relative cell count … Average 10 μM” value is on record as 102.76; the “Relative cell count … Average 25 μM” value came to 105.3. For the same molecule, in series [2], the “Relative cell count … Average 50 μM” value was 75.59 and the “Relative cell count … (for correlation analysis)” value was determined as 101.24. In addition, the “Toxicity Data, Average, Mean (relative to DMSO control)” value in series [2] (Average of Exp 1-3, 1 uM) worked out at 113.75%. Besides, in series [2] (Average of Exp 1-3, 5 uM), the “Toxicity Data, Average, Mean (relative to DMSO control)” value came out at 108.79%. In series [2] (Average of Exp 1-3, 10 uM), the “Toxicity Data, Average, Mean (relative to DMSO control)” value amounted to 102.76%. Also, the “Toxicity Data, Average, Mean (relative to DMSO control)” value in series [2] (Average of Exp 1-3, 25 uM) was determined as 105.30%. Besides, the “Toxicity Data, Average, Mean (relative to DMSO control)” value in series [2] (Average of Exp 1-3, 50 uM) worked out at 75.59%.
In the case of `COc1ccc(C2NC(=O)NC(C)=C2C(=O)NCC2CCCCC2)cc1OC` (centres unmarked) [SILCS63], in series [1], the “Percentage Inhibition Average 1 μM” value came out at 19.08%, the “Screening data (Relative infection to DMSO controls) Average 1 μM” value amounted to 80.92, the “Percentage Inhibition Average 5 μM” value is given as 53.97% and the “Screening data (Relative infection to DMSO controls) Average 5 μM” value is recorded as 46.03. In addition, in series [1], the “Percentage Inhibition Average 10 μM” value was determined as 7.81%, the “Screening data (Relative infection to DMSO controls) Average 10 μM” value is 92.19, the “Percentage Inhibition Average 25 μM” value is on record as −18.04% and the “Screening data (Relative infection to DMSO controls) Average 25 μM” value was 118.04. Besides, in series [1], the “Percentage Inhibition Average 50 μM” value is recorded as −21.48%, the “Screening data (Relative infection to DMSO controls) Average 50 μM” value was 121.48 and the “Average (relative infection to DMSO over the 5 tested concentrations)” value is 91.73. Also, in series [2], the “Relative cell count … Average 1 μM” value came to 106.9; the “Relative cell count … Average 5 μM” value is 114.55; the “Relative cell count … Average 10 μM” value came to 101.91; the “Relative cell count … Average 25 μM” value is given as 91.46. In series [2], the “Relative cell count … Average 50 μM” value is on record as 78.57 and the “Relative cell count … (for correlation analysis)” value is recorded as 98.68.

Values taken from patent US20240132484A1, “BROAD SPECTRUM ANTIVIRAL COMPOUNDS TARGETING THE SKI COMPLEX” (priority 2020, published 2024).
